# Source: ChEMBL document CHEMBL3400015, “Tertiary amides of Salinomycin: A new group of antibacterial agents against Bacillus anthracis and methicillin-resistant Staphylococcus epidermidis” (Bioorg Med Chem Lett, 2015)
# Key:
# Format in all cases: functional
# Staphylococcus aureus [1] = assay: Antimicrobial activity against Staphylococcus aureus ATCC 6538 after 18 hrs by twofold serial broth dilution method; conditions: ATCC 6538, 18 h
# Staphylococcus aureus [2] = assay: Antimicrobial activity against Staphylococcus aureus […] after 18 hrs by twofold serial broth dilution method
# [3] = system: Staphylococcus epidermidis; assay: Antimicrobial activity against Staphylococcus epidermidis ATCC 12228 after 18 hrs by twofold serial broth dilution method; conditions: ATCC 12228, 18 h
# Escherichia coli [4] = assay: Antimicrobial activity against Escherichia coli ATCC 10538 after 18 hrs by twofold serial broth dilution method; conditions: ATCC 10538, 18 h
# Escherichia coli [5] = assay: Antimicrobial activity against Escherichia coli ATCC 25922 after 18 hrs by twofold serial broth dilution method; conditions: ATCC 25922, 18 h
# Escherichia coli [6] = assay: Antimicrobial activity against Escherichia coli NCTC 8196 after 18 hrs by twofold serial broth dilution method; conditions: NCTC 8196, 18 h
# Pseudomonas aeruginosa [7] = assay: Antimicrobial activity against Pseudomonas aeruginosa ATCC 15442 after 18 hrs by twofold serial broth dilution method; conditions: ATCC 15442, 18 h
# Pseudomonas aeruginosa [8] = assay: Antimicrobial activity against Pseudomonas aeruginosa NCTC 6749 after 18 hrs by twofold serial broth dilution method; conditions: NCTC 6749, 18 h
# Pseudomonas aeruginosa [9] = assay: Antimicrobial activity against Pseudomonas aeruginosa ATCC 27853 after 18 hrs by twofold serial broth dilution method; conditions: ATCC 27853, 18 h
# Bacillus anthracis = assay: Antimicrobial activity against Bacillus anthracis 34F2 after 18 hrs by twofold serial broth dilution method; conditions: 34F2, 18 h
# Staphylococcus aureus [10] = assay: Bactericidal activity against Staphylococcus aureus NCTC 4163 after 24 hrs; conditions: NCTC 4163, 24 h, read-out: MBC99.9
# Staphylococcus aureus [11] = assay: Bactericidal activity against Staphylococcus aureus ATCC 25923 after 24 hrs; conditions: ATCC 25923, 24 h, read-out: MBC99.9
# Staphylococcus aureus [12] = assay: Bactericidal activity against Staphylococcus aureus ATCC 6538 after 24 hrs; conditions: ATCC 6538, 24 h, read-out: MBC99.9
# Staphylococcus aureus [13] = assay: Bactericidal activity against Staphylococcus aureus […] after 24 hrs; conditions: read-out: MBC99.9
# [14] = system: Staphylococcus epidermidis; assay: Bactericidal activity against Staphylococcus epidermidis ATCC 12228 after 24 hrs; conditions: ATCC 12228, 24 h, read-out: MBC99.9
# Escherichia coli [15] = assay: Bactericidal activity against Escherichia coli ATCC 25922 after 24 hrs; conditions: ATCC 25922, 24 h, read-out: MBC99.9
# Escherichia coli [16] = assay: Bactericidal activity against Escherichia coli NCTC 8196 after 24 hrs; conditions: NCTC 8196, 24 h, read-out: MBC99.9
# Pseudomonas aeruginosa [17] = assay: Bactericidal activity against Pseudomonas aeruginosa ATCC 15442 after 24 hrs; conditions: ATCC 15442, 24 h, read-out: MBC99.9
# Pseudomonas aeruginosa [18] = assay: Bactericidal activity against Pseudomonas aeruginosa NCTC 6749 after 24 hrs; conditions: NCTC 6749, 24 h, read-out: MBC99.9
# Pseudomonas aeruginosa [19] = assay: Bactericidal activity against Pseudomonas aeruginosa ATCC 27853 after 24 hrs; conditions: ATCC 27853, 24 h, read-out: MBC99.9
# [20] = system: Staphylococcus epidermidis; assay: Antimicrobial activity against methicillin-resistant Staphylococcus epidermidis isolate 404/10 after 18 hrs by twofold serial broth dilution method; conditions: isolate 404/10, 18 h
# [21] = system: Staphylococcus epidermidis; assay: Antimicrobial activity against methicillin-resistant Staphylococcus epidermidis isolate 407/10 after 18 hrs by twofold serial broth dilution method; conditions: isolate 407/10, 18 h
# [22] = system: Staphylococcus epidermidis; assay: Antimicrobial activity against methicillin-resistant Staphylococcus epidermidis isolate 409/10 after 18 hrs by twofold serial broth dilution method; conditions: isolate 409/10, 18 h
# [23] = system: Staphylococcus epidermidis; assay: Antimicrobial activity against methicillin-resistant Staphylococcus epidermidis isolate 422/10 after 18 hrs by twofold serial broth dilution method; conditions: isolate 422/10, 18 h
# [24] = system: Staphylococcus epidermidis; assay: Antimicrobial activity against methicillin-resistant Staphylococcus epidermidis isolate 454/11 after 18 hrs by twofold serial broth dilution method; conditions: isolate 454/11, 18 h
# [25] = system: Staphylococcus epidermidis; assay: Antimicrobial activity against methicillin-resistant Staphylococcus epidermidis isolate 455/11 after 18 hrs by twofold serial broth dilution method; conditions: isolate 455/11, 18 h
# [26] = system: Staphylococcus epidermidis; assay: Antimicrobial activity against methicillin-resistant Staphylococcus epidermidis isolate 457/11 after 18 hrs by twofold serial broth dilution method; conditions: isolate 457/11, 18 h
# [27] = system: Staphylococcus epidermidis; assay: Antimicrobial activity against methicillin-resistant Staphylococcus epidermidis isolate 459/11 after 18 hrs by twofold serial broth dilution method; conditions: isolate 459/11, 18 h
# [28] = system: Staphylococcus epidermidis; assay: Antimicrobial activity against methicillin-resistant Staphylococcus epidermidis isolate 461/11 after 18 hrs by twofold serial broth dilution method; conditions: isolate 461/11, 18 h
# [29] = system: Staphylococcus epidermidis; assay: Antimicrobial activity against methicillin-resistant Staphylococcus epidermidis isolate 469/11 after 18 hrs by twofold serial broth dilution method; conditions: isolate 469/11, 18 h
# [30] = system: Staphylococcus epidermidis; assay: Antimicrobial activity against methicillin-resistant Staphylococcus epidermidis isolate 470/11 after 18 hrs by twofold serial broth dilution method; conditions: isolate 470/11, 18 h
# [31] = system: Staphylococcus epidermidis; assay: Bactericidal activity against methicillin-resistant Staphylococcus epidermidis isolate 403/10 after 24 hrs; conditions: isolate 403/10, 24 h, read-out: MBC99.9
# [32] = system: Staphylococcus epidermidis; assay: Bactericidal activity against methicillin-resistant Staphylococcus epidermidis isolate 404/10 after 24 hrs; conditions: isolate 404/10, 24 h, read-out: MBC99.9
# [33] = system: Staphylococcus epidermidis; assay: Bactericidal activity against methicillin-resistant Staphylococcus epidermidis isolate 405/10 after 24 hrs; conditions: isolate 405/10, 24 h, read-out: MBC99.9
# [34] = system: Staphylococcus epidermidis; assay: Bactericidal activity against methicillin-resistant Staphylococcus epidermidis isolate 407/10 after 24 hrs; conditions: isolate 407/10, 24 h, read-out: MBC99.9
# [35] = system: Staphylococcus epidermidis; assay: Bactericidal activity against methicillin-resistant Staphylococcus epidermidis isolate 424/10 after 24 hrs; conditions: isolate 424/10, 24 h, read-out: MBC99.9
# [36] = system: Staphylococcus epidermidis; assay: Bactericidal activity against methicillin-resistant Staphylococcus epidermidis isolate 454/11 after 24 hrs; conditions: isolate 454/11, 24 h, read-out: MBC99.9
# [37] = system: Staphylococcus epidermidis; assay: Bactericidal activity against methicillin-resistant Staphylococcus epidermidis isolate 455/11 after 24 hrs; conditions: isolate 455/11, 24 h, read-out: MBC99.9
# [38] = system: Staphylococcus epidermidis; assay: Bactericidal activity against methicillin-resistant Staphylococcus epidermidis isolate 457/11 after 24 hrs; conditions: isolate 457/11, 24 h, read-out: MBC99.9
# [39] = system: Staphylococcus epidermidis; assay: Bactericidal activity against methicillin-resistant Staphylococcus epidermidis isolate 458/11 after 24 hrs; conditions: isolate 458/11, 24 h, read-out: MBC99.9
# [40] = system: Staphylococcus epidermidis; assay: Bactericidal activity against methicillin-resistant Staphylococcus epidermidis isolate 459/11 after 24 hrs; conditions: isolate 459/11, 24 h, read-out: MBC99.9
# [41] = system: Staphylococcus epidermidis; assay: Bactericidal activity against methicillin-resistant Staphylococcus epidermidis isolate 461/11 after 24 hrs; conditions: isolate 461/11, 24 h, read-out: MBC99.9
# [42] = system: Staphylococcus epidermidis; assay: Bactericidal activity against methicillin-resistant Staphylococcus epidermidis isolate 469/11 after 24 hrs; conditions: isolate 469/11, 24 h, read-out: MBC99.9
compound,measurement,setting,value
CC[C@@H](C(=O)[C@@H](C)[C@@H](O)[C@H](C)[C@@H]1O[C@@H]([C@@H](CC)C(=O)N(Cc2ccccc2)Cc2ccccc2)CC[C@@H]1C)[C@H]1O[C@]2(C=C[C@@H](O)[C@]3(CC[C@@](C)([C@H]4CC[C@](O)(CC)[C@H](C)O4)O3)O2)[C@H](C)C[C@@H]1C,MIC,Staphylococcus aureus [1],16 µg/mL
same,MIC,Staphylococcus aureus [2],32 µg/mL
same,MIC,[3],16 µg/mL
same,MIC,Escherichia coli [4],> 256 µg/mL
same,MIC,Escherichia coli [5],> 256 µg/mL
same,MIC,Escherichia coli [6],> 256 µg/mL
same,MIC,Pseudomonas aeruginosa [7],> 256 µg/mL
same,MIC,Pseudomonas aeruginosa [8],> 256 µg/mL
same,MIC,Pseudomonas aeruginosa [9],> 256 µg/mL
same,MIC,Bacillus anthracis,32 µg/mL
same,MBC,Staphylococcus aureus [10],256 µg/mL
same,MBC,Staphylococcus aureus [11],128 µg/mL
same,MBC,Staphylococcus aureus [12],256 µg/mL
same,MBC,Staphylococcus aureus [13],> 256 µg/mL
same,MBC,[14],256 µg/mL
same,MBC,Escherichia coli [15],> 256 µg/mL
same,MBC,Escherichia coli [16],> 256 µg/mL
same,MBC,Pseudomonas aeruginosa [17],> 256 µg/mL
same,MBC,Pseudomonas aeruginosa [18],> 256 µg/mL
same,MBC,Pseudomonas aeruginosa [19],> 256 µg/mL
same,MIC,[20],32 µg/mL
same,MIC,[21],16 µg/mL
same,MIC,[22],16 µg/mL
same,MIC,[23],16 µg/mL
same,MIC,[24],8 µg/mL
same,MIC,[25],32 µg/mL
same,MIC,[26],16 µg/mL
same,MIC,[27],16 µg/mL
same,MIC,[28],32 µg/mL
same,MIC,[29],32 µg/mL
same,MIC,[30],32 µg/mL
same,MBC,[31],> 256 µg/mL
same,MBC,[32],> 256 µg/mL
same,MBC,[33],128 µg/mL
same,MBC,[34],256 µg/mL
same,MBC,[35],256 µg/mL
same,MBC,[36],128 µg/mL
same,MBC,[37],256 µg/mL
same,MBC,[38],256 µg/mL
same,MBC,[39],> 256 µg/mL
same,MBC,[40],256 µg/mL
same,MBC,[41],> 256 µg/mL
same,MBC,[42],> 256 µg/mL
